Paper PMC8079065, “Design, synthesis and in vitro and in vivo biological evaluation of flurbiprofen amides as new fatty acid amide hydrolase/cyclooxygenase-2 dual inhibitory potential analgesic agents” (Journal of Enzyme Inhibition and Medicinal Chemistry, 2021)
Like-named read-outs stand apart in the source and are kept apart here.

Assays:
FAAH [1] = target: T1, FAAH (Rattus norvegicus, UniProt P97612); test: FAAH assay: [3H]AEA hydrolysis by rat brain homogenates; format: biochemical; settings: for IC50: 0.5 µM [3H]AEA, rat brain homogenates; for increase in FAAH inhibitory activity versus Flu-AM1: IC50 compared with Flu-AM1; for FAAH potency versus flurbiprofen: IC50 compared with flurbiprofen
T1 construct: rat or mouse brain homogenates as the enzyme source; from tissue; host or cells: rat brain (minus cerebellum), Wistar or Sprague-Dawley, washed membrane homogenate
T1 sequence (P97612 1-579): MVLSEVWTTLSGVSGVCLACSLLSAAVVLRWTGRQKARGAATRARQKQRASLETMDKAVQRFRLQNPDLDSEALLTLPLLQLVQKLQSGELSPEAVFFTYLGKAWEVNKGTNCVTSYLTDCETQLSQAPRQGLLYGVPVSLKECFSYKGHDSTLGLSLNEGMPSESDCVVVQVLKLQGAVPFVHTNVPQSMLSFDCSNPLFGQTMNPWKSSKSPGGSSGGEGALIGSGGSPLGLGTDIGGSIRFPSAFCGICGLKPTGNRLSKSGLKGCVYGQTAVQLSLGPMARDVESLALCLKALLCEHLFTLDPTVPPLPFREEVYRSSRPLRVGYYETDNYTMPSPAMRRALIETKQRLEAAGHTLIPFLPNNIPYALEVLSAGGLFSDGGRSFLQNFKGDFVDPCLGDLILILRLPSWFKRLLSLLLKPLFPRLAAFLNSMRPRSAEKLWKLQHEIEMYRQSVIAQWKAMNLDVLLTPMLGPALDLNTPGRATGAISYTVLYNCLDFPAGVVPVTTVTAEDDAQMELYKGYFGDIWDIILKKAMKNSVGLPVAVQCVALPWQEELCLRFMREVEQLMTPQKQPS

FAAH [2] = target: T2, FAAH (Mus musculus, UniProt O08914); test: FAAH assay: [3H]AEA hydrolysis by mouse brain homogenates; format: biochemical; settings: 0.5 µM [3H]AEA
T2 construct: rat or mouse brain homogenates as the enzyme source; from tissue; host or cells: mouse brain (minus cerebellum), male B6CBAF1/J, washed membrane homogenate
T2 sequence (O08914 1-579): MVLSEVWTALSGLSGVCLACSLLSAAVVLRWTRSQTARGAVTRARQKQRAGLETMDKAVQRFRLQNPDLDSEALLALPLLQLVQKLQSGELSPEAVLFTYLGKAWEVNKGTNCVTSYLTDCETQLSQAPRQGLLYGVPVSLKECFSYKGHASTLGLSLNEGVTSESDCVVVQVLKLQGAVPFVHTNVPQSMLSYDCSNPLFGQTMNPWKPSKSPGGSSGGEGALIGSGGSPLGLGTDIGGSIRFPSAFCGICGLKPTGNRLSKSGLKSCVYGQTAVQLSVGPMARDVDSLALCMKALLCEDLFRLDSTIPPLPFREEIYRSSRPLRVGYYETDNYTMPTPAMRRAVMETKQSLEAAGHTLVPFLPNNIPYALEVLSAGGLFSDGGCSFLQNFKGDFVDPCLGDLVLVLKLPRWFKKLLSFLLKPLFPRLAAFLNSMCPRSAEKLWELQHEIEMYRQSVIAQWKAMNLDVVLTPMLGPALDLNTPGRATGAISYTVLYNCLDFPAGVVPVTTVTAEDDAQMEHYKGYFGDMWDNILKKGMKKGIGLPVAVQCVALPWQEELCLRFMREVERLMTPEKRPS

ovine COX-1 = test system: T3, ovine COX-1; test: COX-1 inhibition, oxygen electrode assay; format: biochemical; settings: 10 µM compound, 10 µM arachidonic acid
T3 construct: purchased Cayman Chemical Co. 60100
Experimental: (§1) The assay was performed according to Meade et al.[58] with minor modifications. An oxygen electrode chamber with integral stirring (Oxygraph System, Hansatech Instruments, King’s Lynn, U.K.) was calibrated daily to ambient temperature and air pressure. The assay buffer contained 100 mM Tris-HCl buffer pH 7.4, 1 µM haematin, 2 mM phenol, 5 mM EDTA, 10 µM substrate (arachidonic acid or 2-AG) (final assay volume was 2 ml). After addition of Flu-AM4 dissolved in ethanol (final assay concentration 1%), a baseline was established for 5 min before initiation of reaction by addition of 200 units of either ovine COX-1 or human recombinant COX-2. The change in oxygen consumption as a measurement of enzyme activity was monitored for approximately 5 min.

human recombinant COX-2 = test system: T4, human recombinant COX-2; test: COX-2 inhibition, oxygen electrode assay; format: biochemical; settings: 10 µM compound, 10 µM 2-AG
T4 construct: purchased Cayman Chemical Co. 60122
Experimental: as §1, with “[…].)” for “King’s Lynn, U.K.)”, “μM” for “µM”

CD1 male mice [3] = test: Formalin-evoked hind-paw licking; format: in vivo; settings: phase I and II
Experimental: (§2) The behavioural experiments were performed on CD1 male mice (25–30 g Charles Rivers-Italy). They were housed in the animal care facility of the Department Experimental of Pharmacology, University of Naples. The animals were acclimated to their environment for 1 week and had ad libitum access to standard rodent chow pellets VRF1 (purchased from Special Diet Service-SDS). All behavioural tests were performed between 9:00 AM and 13:00 PM, and the animals were only used once. Procedures involving animals and their care were conducted in conformity with international and national law and policies (EU Directive 2010/63/EU for animal experiments). The procedures reported here were approved by the Institutional Committee on the Ethics of Animal Experiments (CSV) of the University of Naples “Federico II” and by the “Ministero della Salute”, protocol no. 2014–0084607. At the end of all experiments for all pain models, the animals were euthanized by CO2 overdose.
(§3) During this study, Flu-AM4 was administered systemically (intraperitoneally) and locally (intraplantar 100 microg/paw). […]
Mice received intraplantar injections of formalin in saline (10%,vol/vol; 10 µl/paw). Paw licking was monitored by an observer blind to the experimental treatment for periods of 0–15 min (early phase) and 15–60 min (late phase) immediately after formalin administration. […]

CD1 male mice [4] = test: Carrageenan-induced paw oedema; format: in vivo; settings: 10 mg/kg ip, 5 min after carrageenan; p < 0.05
Experimental: The behavioural experiments were performed on CD1 male mice (25–30 g Charles Rivers-Italy). They were housed in the animal care facility of the Department Experimental of Pharmacology, University of Naples. The animals were acclimated to their environment for 1 week and had ad libitum access to standard rodent chow pellets VRF1 (purchased from Special Diet Service-SDS). All behavioural tests were performed between 9:00 AM and 13:00 PM, and the animals were only used once. Procedures involving animals and their care were conducted in conformity with international and national law and policies (EU Directive 2010/63/EU for animal experiments). The procedures reported here were approved by the Institutional Committee on the Ethics of Animal Experiments (CSV) of the University of Naples “Federico II” and by the “Ministero della Salute”, protocol no. 2014–0084607. […]
Paw edoema was induced by a subplantar injection of 0.1 ml of sterile saline containing 1% λ-carrageenan (Sigma Aldrich) into the right hind paw. Paw volumes were measured by a plethysmometer (Ugo Basile, Italy) at different times after the paw injection. The increase in paw volume was evaluated as the difference between the paw volume measured (Vm) at each time point (1, 2, 4, 6 and 48 h post carrageenan) and the basal paw volume (Vb) measured immediately before carrageenan injection (Δ volume = Vm – Vb).

CD1 male mice [5] = test: Carrageenan-induced mechanical hyperalgesia (Randall-Selitto); format: in vivo; settings: 10 mg/kg ip, 5 min after carrageenan
Experimental: as §2, §3
Paw withdrawal threshold (PWT) to mechanical pressure was measured with a Randall-Selitto Analgesy-Meter for mice (Ugo Basile, Italy). PWT was measured on the ispsilateral paw at 1, 2, 4, 6 and 48 h post carrageenan injection. […]

CD1 male mice [6] = test: CCI neuropathic pain model, mechanical allodynia (von Frey test); format: in vivo; settings: 1 h before test, day 7 and 14
Experimental: as §2
(§4) During this study, Flu-AM4 was administered systemically (intraperitoneally) and locally (intraplantar 100 microg/paw). For systemic administration, the compound was dissolved in PEG400 20% v/v, TWEEN 80 5% (v/v) and sterile saline and used at different doses (1–3–10 mg/kg). Vehicle group was only treated with PEG, TWEEN and sterile saline. For intraplantar administration Flu-AM4 was dissolved in PEG400 10% v/v, TWEEN 80 5% (v/v) and formalin 5% in sterile saline.
(§5) Neuropathic pain was induced by ligation of the sciatic nerve as described previously. […] At day 7 and 14 Mechanical Allodynia (von Frey test) and Mechanical hyperalgesia (Randall-Selitto test) were assessed. […]
To assess for changes in sensation or in the development of mechanical allodynia, sensitivity to tactile stimulation was measured using the Dynamic Plantar Aesthesiometer (DPA, Ugo Basile, Italy). […]

CD1 male mice [7] = test: CCI neuropathic pain model, mechanical hyperalgesia (Randall-Selitto test); format: in vivo; settings: 1 h before test, day 7 and 14
Experimental: as §2, §4
Paw withdrawal threshold (PWT) to mechanical pressure was measured with a Randall-Selitto Analgesy-Meter for mice (Ugo Basile, Italy). PWT was measured on the ispsilateral paw at 1, 2, 4, 6 and 48 h post carrageenan injection. Each paw was tested twice per session. Cut-off force was set at 100 g.
as §5

iNOS = iNOS expression in the spinal cord of CCI-mice; format: in vivo; settings: 10 mg/kg ip, 1 h before
COX-2 = COX-2 expression in the spinal cord of CCI-mice; format: in vivo; settings: 10 mg/kg ip, 1 h before
NFκB-p65 = test: NF-κB-p65 expression in the spinal cord of CCI-mice; format: in vivo; settings: 10 mg/kg ip, 1 h before
FAAH [8] = target: T1, FAAH; settings: shown for comparative purposes, cited from earlier work; for IC50: rat brain, read-out: IC50 for inhibition of rat brain AEA hydrolysis
FAAH [9] = settings: cited from earlier work
[10] = derived from pI50, read-out: IC50 for inhibition of rat brain AEA hydrolysis
[11] = means ± s.e.m., n = 3–4, read-out: pI50 (-logIC50) for inhibition of rat brain AEA hydrolysis (converted)

CC(C(=O)Nc1ncccc1Br)c1ccc(-c2ccccc2)c(F)c1 (stereo not shown) [Flu-AM4, N-(3-Bromopyridin-2-yl)-2-(2-fluoro-(1,1'-biphenyl)-4-yl)propanamide]
IC50 (FAAH [1]; [10]): 21 nM
IC50 (FAAH [1]; [11]): 21.4 nM
Ki (FAAH [1]; rat brain [3H]AEA hydrolysis, competitive model): 13 nM
increase in FAAH inhibitory activity versus Flu-AM1 (FAAH [1]; rat brain): approximately 20 fold
FAAH potency versus flurbiprofen (FAAH [1]; rat brain): more than three orders of magnitude greater than flurbiprofen
mode of FAAH inhibition (kinetics) (FAAH [1]; rat brain, best fit by Akaike's criteria): competitive inhibition
reversibility of FAAH inhibition (FAAH [1]; rat brain, preincubation and 20-fold dilution experiments): reversible inhibitor
potency towards rat brain FAAH versus mouse brain FAAH (FAAH [1]; rat vs mouse brain): an order of magnitude more potent towards rat brain FAAH than mouse brain FAAH
IC50 (FAAH [2]): 430 nM
inhibition of cyclooxygenation of AA by COX-1 (ovine COX-1): only partially inhibiting
inhibition of cyclooxygenation of 2-AG by COX-2 (human recombinant COX-2): completely inhibited
formalin-induced paw licking, local application (CD1 male mice [3]; 100 µg intraplantar, co-administered with formalin 5%, p < 0.001): reduced the paw licking time in both phases
formalin-induced paw licking, systemic administration (CD1 male mice [3]; 10 mg/kg ip, 1 h before formalin, p < 0.001 vs vehicle): reduce the behavioural responses in both phases
carrageenan-induced paw oedema (CD1 male mice [4]): reduced paw oedema at 2 and 4 h
carrageenan-induced paw hyperalgesia (CD1 male mice [5]): reduce hyperalgesia seen 2 h after carrageenan
CCI-induced mechanical allodynia (Von Frey) (CD1 male mice [6]; 1 mg/kg ip): did not show any effect
CCI-induced mechanical allodynia (Von Frey) (CD1 male mice [6]; 3 mg/kg ip): showed efficacy only at the 14-day time point in both tests
CCI-induced mechanical allodynia (Von Frey) (CD1 male mice [6]; 10 mg/kg ip): increased paw withdrawal latency in both test and in all experimental time
CCI-induced mechanical hyperalgesia (Randall-Selitto) (CD1 male mice [7]; 1 mg/kg ip): did not show any effect
CCI-induced mechanical hyperalgesia (Randall-Selitto) (CD1 male mice [7]; 3 mg/kg ip): showed efficacy only at the 14-day time point in both tests
CCI-induced mechanical hyperalgesia (Randall-Selitto) (CD1 male mice [7]; 10 mg/kg ip): increased paw withdrawal latency in both test and in all experimental time
iNOS expression in the spinal cord (iNOS): significantly reduced this expression
COX-2 expression in the spinal cord (COX-2): significantly reduced this expression
NFκB-p65 expression in the spinal cord (NFκB-p65): significantly reduced this expression

CC(C(=O)Nc1ncccc1Cl)c1ccc(-c2ccccc2)c(F)c1 (stereo not shown) [Flu-AM6, N-(3-Chloropyridin-2-yl)-2-(2-fluoro-(1,1'-biphenyl)-4-yl)propanamide]
IC50 (FAAH [1]; [10]): 19 nM
IC50 (FAAH [1]; [11]): 19.1 nM
increase in FAAH inhibitory activity versus Flu-AM1 (FAAH [1]; rat brain): approximately 20 fold
FAAH potency versus flurbiprofen (FAAH [1]; rat brain): more than three orders of magnitude greater than flurbiprofen

CC(C(=O)O)c1ccc(-c2ccccc2)c(F)c1 (stereo not shown) [Flurbiprofen]
IC50 (FAAH [8]): 29000 nM
pI50 (-logIC50) for inhibition of rat brain AEA hydrolysis (FAAH [8]): 4.53 ± 0.02

Cc1cccnc1NC(=O)C(C)c1ccc(-c2ccccc2)c(F)c1 (stereo not shown) [Flu-AM1]
IC50 (FAAH [8]): 440 nM
pI50 (-logIC50) for inhibition of rat brain AEA hydrolysis (FAAH [8]): 6.36 ± 0.02
potency against FAAH versus flurbiprofen (FAAH [9]): about 60 fold

Cc1cccnc1NC(=O)C(C)c1ccc(CC(C)C)cc1 (stereo not shown) [Ibu-AM5]
potency against FAAH versus ibuprofen (FAAH [9]): 2-3 orders of magnitude

CC(C(=O)Nc1ncccc1C(F)(F)F)c1ccc(-c2ccccc2)c(F)c1 (stereo not shown) [Flu-AM3, 2–(2-Fluoro-(1,1'-biphenyl)-4-yl)-N-(3-(trifluoromethyl)pyridin-2-yl)propanamide]
IC50 (FAAH [1]; [10]): 110 nM
IC50 (FAAH [1]; [11]): 110 nM
increase in FAAH inhibitory activity versus Flu-AM1 (FAAH [1]; rat brain): about 4 fold
